Data reported in patent US8003649B2 (AstraZeneca AB, priority 2007, dated 2011).

Each molecule was assayed against T1, Androgen Receptor (AR) (Homo sapiens, UniProt P10275, T878A) (assay: LNCaP Androgen Receptor Down-regulation Cell Assay (immunofluorescence end point)). Conditions: LNCaP prostate carcinoma cells, compound incubation 20-22 hours, 50% reduction of the AR signal; read-out: Androgen Receptor Down-regulation Assay (a) IC50/μM.
T1 construct: cell based immuno-fluorescence assay using the LNCaP prostate epithelial cell line; endogenous in cells; host or cells: LNCaP clone FGC (ATCC CRL-1740)
T1 sequence (P10275 1-920 T878A): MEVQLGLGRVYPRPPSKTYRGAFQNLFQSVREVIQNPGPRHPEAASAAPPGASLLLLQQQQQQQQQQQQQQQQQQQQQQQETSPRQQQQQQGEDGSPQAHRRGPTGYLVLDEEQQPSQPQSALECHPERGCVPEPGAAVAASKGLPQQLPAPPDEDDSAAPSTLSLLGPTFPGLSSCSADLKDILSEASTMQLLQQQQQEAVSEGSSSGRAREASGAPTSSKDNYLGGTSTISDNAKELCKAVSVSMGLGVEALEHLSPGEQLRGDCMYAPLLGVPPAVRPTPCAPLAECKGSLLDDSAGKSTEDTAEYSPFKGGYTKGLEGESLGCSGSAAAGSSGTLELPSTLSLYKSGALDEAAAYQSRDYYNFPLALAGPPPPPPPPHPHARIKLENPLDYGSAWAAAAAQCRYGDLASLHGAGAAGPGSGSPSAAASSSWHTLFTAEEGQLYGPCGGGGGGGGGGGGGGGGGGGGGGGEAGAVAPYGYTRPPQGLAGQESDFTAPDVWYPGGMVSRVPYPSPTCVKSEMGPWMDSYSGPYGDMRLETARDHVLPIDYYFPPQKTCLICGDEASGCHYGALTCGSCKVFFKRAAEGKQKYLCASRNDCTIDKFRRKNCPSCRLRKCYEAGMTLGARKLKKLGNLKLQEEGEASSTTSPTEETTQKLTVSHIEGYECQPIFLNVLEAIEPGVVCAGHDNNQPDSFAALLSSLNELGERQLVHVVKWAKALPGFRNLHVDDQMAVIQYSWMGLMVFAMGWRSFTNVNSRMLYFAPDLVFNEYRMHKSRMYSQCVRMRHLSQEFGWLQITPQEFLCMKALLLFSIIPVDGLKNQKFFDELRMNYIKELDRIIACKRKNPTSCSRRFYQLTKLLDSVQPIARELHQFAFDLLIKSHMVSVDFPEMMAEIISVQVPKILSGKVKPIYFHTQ
Type: cell-based
How it was run: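 AR loss reported as IC50 from curve fits of fluorescence dose-response data, with AR immunostained and read by laser-scanning cytometry. Compound exposure was 20-22 h at 37° C in LNCaP cells grown in 5% charcoal-stripped FBS and plated overnight beforehand.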

| SMILES | DC50 [µM] |
| --- | --- |
| FC(F)(Cl)c1nnc2ccc(N3CCN(Cc4cccs4)CC3)nn12 [Example 356, 3-[chloro(difluoro)methyl]-6-[4-(thiophen-2-ylmethyl)piperazin-1-yl][1,2,4]triazolo[4,3-b]pyridazine] | 2.2 |
| CC(c1ccccc1)N1CCN(c2ccc3nnc(C(F)(F)Cl)n3n2)CC1 (stereo not shown) [Example 350, 3-[chloro(difluoro)methyl]-6-[4-(1-Phenylethyl)piperazin-1-yl][1,2,4]triazolo[4,3-b]pyridazine] | 0.74 |
| CS(=O)(=O)c1ccc(C2CCN(c3ccc4nnc(C(F)(F)F)n4n3)CC2)cc1 [Example 521] | 5.4 |
| CC(=O)c1ccc(N2CCN(c3ccc4nnc(C(F)(F)F)n4n3)CC2)cc1 [Example 17, 1-[4-[4-[3-(trifluoromethyl)-[1,2,4]triazolo[4,3-b]pyridazin-6-yl]piperazin-1-yl]phenyl]ethanone] | 2.5 |
| FC(F)(F)c1nnc2ccc(N3CCC(c4c[nH]c5ncccc45)CC3)nn12 [Example 325, 6-[4-(1H-pyrrolo[2,3-b]pyridin-3-yl)piperidin-1-yl]-3-(trifluoromethyl)[1,2,4]triazolo[4,3-b]pyridazine] | > 1.2 |
| FC(F)(F)c1nnc2ccc(N3C[C@@H]4[C@H](C3)[C@H]4NCc3cccc(Cl)c3)nn12 [Example 555] | 1.4 |
| CC(C)(C)OC(=O)N1[C@@H]2CC[C@H]1CN(c1ccc3nnc(C(F)(F)F)n3n1)C2 [Example 35, tert-butyl (1S,5R)-3-[3-(trifluoromethyl)-[1,2,4]triazolo[4,3-b]pyridazin-6-yl]-3,8-diazabicyclo[3.2.1]octane-8-carboxylate] | 3 |
| C[C@@H]1CN(c2ccc3nnc(C(F)(F)F)n3n2)CCN1Cc1cccc(Br)n1 [Example 830] | 0.85 |
| FC(F)(F)c1nnc2ccc(N3CCC(COc4ccncc4)CC3)nn12 [Example 561] | 2.9 |
| COc1ccc(CN2CCN(c3ccc4nnc(C(F)(F)F)n4n3)CC2)cc1 [Example 15, 6-[4-[(4-methoxyphenyl)methyl]piperazin-1-yl]-3-(trifluoromethyl)-[1,2,4]triazolo[4,3-b]pyridazine] | 2.5 |
| O=C(c1ccc(C2CCN(c3ccc4nnc(C(F)(F)F)n4n3)CC2)cc1)N1CCNCC1 [Example 636] | 20 |
| FC(F)(Cl)c1nnc2ccc(N3CCN(c4c(Cl)cncc4Cl)CC3)nn12 [Example 339, 3-[chloro(difluoro)methyl]-6-[4-(3,5-dichloropyridin-4-yl)piperazin-1-yl][1,2,4]triazolo[4,3-b]pyridazine] | 0.77 |
| O=C(c1ccccc1)C1CCN(c2ccc3nnc(C(F)(F)F)n3n2)CC1 [Example 533] | 2.3 |
| CS(=O)(=O)Oc1ccc(CN2CCN(c3ccc4nnc(C(F)(F)F)n4n3)CC2)cc1 [Example 152, [4-[[4-[3-(trifluoromethyl)-[1,2,4]triazolo[4,3-b]pyridazin-6-yl]piperazin-1-yl]methyl]phenyl]methanesulfonate] | 6.7 |
| FC(F)(F)c1nnc2ccc(N3CCC(Oc4cccnc4Br)CC3)nn12 [Example 717] | 2.9 |
| FC(F)(F)c1nnc2ccc(N3CC4CN(Cc5cccnc5Br)CC4C3)nn12 (stereo not shown) [Example 796] | 0.63 |
| COc1ccc(OC2CN(c3ccc4nnc(C(F)(F)F)n4n3)C2)cc1 [Example 486] | > 13 |
| FC(F)(F)c1nnc2ccc(N3CCC(COC4COC4)CC3)nn12 [Example 481] | 6.6 |
| FC(F)(F)c1nnc2ccc(N3CCN(c4ccc(Br)cn4)CC3)nn12 [Example 11, 6-[4-(5-bromopyridin-2-yl)piperazin-1-yl]-3-(trifluoromethyl)-[1,2,4]triazolo[4,3-b]pyridazine] | 2.5 |
| CN1CCN(CCNC(=O)c2cccc(OC3CCN(c4ccc5nnc(C(F)(F)F)n5n4)CC3)c2)CC1 [Example 704] | 4.2 |
| Cc1cc(COc2ccc(C3CCN(c4ccc5nnc(C(F)(F)F)n5n4)CC3)cc2)no1 [Example 729] | 0.92 |
| O=C1CCc2ccccc2N1C1CCN(c2ccc3nnc(C(F)(F)F)n3n2)CC1 [Example 40, 1-[1-[3-(trifluoromethyl)-[1,2,4]triazolo[4,3-b]pyridazin-6-yl]piperidin-4-yl]-3,4-dihydroquinolin-2-one] | 3.3 |

| SMILES | DC50 [µM] |
| --- | --- |
| Fc1ccc(C(F)F)c(CN2CCN(c3ccc4nnc(C(F)(F)F)n4c3)CC2)c1 [Example 810, 6-[4-[2-(difluoromethyl)-5-fluorobenzyl]piperazin-1-yl]-3-(trifluoromethyl)[1,2,4]triazolo[4,3-a]pyridine] | 1.9 |
| FC(F)(F)c1nnc2ccc(N3CC(COc4cccnc4)C3)nn12 [Example 492] | > 30 |
| Fc1ccccc1OC1CCN(c2ccc3nnc(C(F)(F)F)n3n2)CC1 [Example 529] | 1.9 |
| CCNC(=O)c1ccc(C2CCN(c3ccc4nnc(C(F)(F)F)n4n3)CC2)cc1 [Example 637] | 1.8 |
| Fc1cc(F)cc(CN2CCN(c3ccc4nnc(C(F)F)n4n3)CC2)c1 [Example 251] | 9.3 |
| FC(F)(F)c1nnc2ccc(N3CCN(Cc4c[nH]c5ccc(Cl)cc45)CC3)nn12 [Example 280] | 0.78 |
| FC(F)c1nnc2ccc(N3CCC(c4c[nH]c5ccccc45)CC3)nn12 [Example 266, 3-(difluoromethyl)-6-[4-(1H-indol-3-yl)piperidin-1-yl][1,2,4]triazolo[4,3-b]pyridazine] | 0.63 |
| COc1ccc(S(=O)(=O)N2CCN(c3ccc4nnc(C(F)(F)F)n4n3)CC2)cc1 [Example 398] | 1.9 |
| CN1CCN(CC(=O)Nc2ccc(C3CCN(c4ccc5nnc(C(F)(F)F)n5n4)CC3)cc2)CC1 [Example 708, 2-(4-methylpiperazin-1-yl)-N-[4-[1-[3-(trifluoromethyl)[1,2,4]triazolo[4,3-b]pyridazin-6-yl]piperidin-4-yl]phenyl]acetamide] | 6.2 |
| COCCCC(=O)Nc1cccc(C2CCN(c3ccc4nnc(C(F)(F)F)n4n3)CC2)c1 [Example 662, 4-methoxy-N-[3-[1-(3-(trifluoromethyl)-[1,2,4]triazolo[4,3-b]pyridazin-6-yl)piperidin-4-yl]phenyl]butanamide] | 5.4 |
| N#Cc1ccc(CN2CCN(c3ccc4nnc(C(F)(F)F)n4n3)CC2)c(F)c1 [Example 389] | 1.5 |
| FC(F)(F)c1nnc2ccc(N3CCN(Cc4ccc(Cl)cc4)CC3)cn12 [Example 190, 6-[4-[(4-chlorophenyl)methyl]piperazin-1-yl]-3-(trifluoromethyl)-[1,2,4]triazolo[4,3-a]pyridine] | 0.79 |
| FC(F)(F)c1nnc2ccc(N3CCC(Oc4cncc(Cl)c4)CC3)nn12 [Example 617] | 4.3 |
| FC(F)(F)c1nnc2ccc(N3CCN(CCc4ccc(Cl)cc4)CC3)nn12 [Example 231] | 2.1 |
| N#Cc1ccc(CN2CCN(c3ccc4nnc(C(F)(F)F)n4c3)CC2)cc1 [Example 187, 4-[[4-[3-(trifluoromethyl)-[1,2,4]triazolo[4,3-a]pyridin-6-yl]piperazin-1-yl]methyl]benzonitrile] | 4.7 |
| CS(=O)(=O)c1ccc(F)cc1CN1CCN(c2ccc3nnc(C(F)(F)F)n3n2)CC1 [Example 765] | 8.8 |
| COc1ccc(CN2CCCN(c3ccc4nnc(C(F)(F)F)n4n3)CC2)cc1 [Example 181, 6-[4-[(4-methoxyphenyl)methyl]-1,4-diazepan-1-yl]-3-(trifluoromethyl)-[1,2,4]triazolo[4,3-b]pyridazine] | 2.1 |
| CCOc1ccc(CN2CCN(c3ccc4nnc(C(F)(F)F)n4n3)CC2)cc1 [Example 108, 6-[4-[(4-ethoxyphenyl)methyl]piperazin-1-yl]-3-(trifluoromethyl)-[1,2,4]triazolo[4,3-b]pyridazine] | 2.3 |
| FC(F)(F)c1nnc2ccc(N3CCN(Cc4nc5ccccc5s4)CC3)nn12 [Example 48, 6-[4-(1,3-benzothiazol-2-ylmethyl)piperazin-1-yl]-3-(trifluoromethyl)-[1,2,4]triazolo[4,3-b]pyridazine] | 1.5 |
| CC(F)(F)c1nnc2ccc(N3CCN(Cc4cccc(F)c4)CC3)nn12 [Example 243] | 3.7 |
| FC(F)c1cccc(CN2CCN(c3ccc4nnc(C(F)F)n4n3)CC2)c1 [Example 825, 3-(difluoromethyl)-6-[4-[3-(difluoromethyl)benzyl]piperazin-1-yl][1,2,4]triazolo[4,3-b]pyridazine] | 1.9 |
